Source: PubChem BioAssay (NCI)
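Results reflect a 48-hour exposure of cells in 96-well plates to compound at five concentrations. TGI denotes the concentration required for complete inhibition of growth.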

Key:
Test in all cases: NCI tumour cell line growth inhibition, 48 h
[1] = system: NCI/ADR-RES ovarian
[2] = system: CAKI-1 renal
[3] = system: M19-MEL melanoma
[4] = system: DLD-1 colon
[5] = system: HCT-116 colon
[6] = system: UACC-62 melanoma
[7] = system: RPMI-8226 leukemia
[8] = system: P388/ADR leukemia
[9] = system: COLO 205 colon
[10] = system: SN12C renal
[11] = system: SF-268 CNS
[12] = system: DMS 273 small cell lung
[13] = system: OVCAR-5 ovarian
[14] = system: NCI-H226 lung
[15] = system: MCF7 breast
[16] = system: SNB-75 CNS
[17] = system: OVCAR-8 ovarian
[18] = system: OVCAR-3 ovarian
[19] = system: HL-60(TB) leukemia
[20] = system: SF-295 CNS
[21] = system: NCI-H23 lung
[22] = system: HOP-92 NSCLC
[23] = system: EKVX NSCLC
[24] = system: MOLT-4 leukemia
[25] = system: KM20L2 colon
[26] = system: SNB-78 CNS
[27] = system: HT29 colon
[28] = system: HOP-62 NSCLC
[29] = system: IGROV1 ovarian
[30] = system: LOX IMVI melanoma
[31] = system: UO-31 renal
[32] = system: SK-MEL-28 melanoma
[33] = system: SN12K1 renal
[34] = system: KM12 colon
[35] = system: SW-620 colon
[36] = system: XF 498 CNS
[37] = system: OVCAR-4 ovarian
[38] = system: HCC-2998 colon
[39] = system: NCI-H522 lung
[40] = system: SK-MEL-2 melanoma
[41] = system: SK-OV-3 ovarian
[42] = system: CCRF-CEM leukemia
[43] = system: K-562 leukemia
[44] = system: HCT-15 colon
[45] = system: P388 leukemia
[46] = system: SNB-19 CNS
[47] = system: U251 CNS
[48] = system: MALME-3M melanoma
[49] = system: HOP-18 NSCLC
[50] = system: SF-539 CNS
[51] = system: SK-MEL-5 melanoma
[52] = system: UACC-257 melanoma
[53] = system: A549 NSCLC
[54] = system: NCI-H460 lung
[55] = system: DMS 114 small cell lung
[56] = system: RXF 393 renal
[57] = system: A498 renal

Structure (SMILES): O=C1C(=O)c2cc([N+](=O)[O-])ccc2-c2ccc([N+](=O)[O-])cc21
- TGI [1]: 1.03 µM
- TGI [2]: 2.14 µM
- TGI [3]: 0.789 µM
- TGI [4]: 3.95 µM
- TGI [5]: 0.885 µM
- TGI [6]: 1.54 µM
- TGI [7]: 1.35 µM
- TGI [8]: 2.54 µM
- TGI [9]: 7.75 µM
- TGI [10]: 2.29 µM
- TGI [11]: 1.93 µM
- TGI [12]: 1.83 µM
- TGI [13]: 6.4 µM
- TGI [14]: 4.09 µM
- TGI [15]: 2.61 µM
- TGI [16]: 5.2 µM
- TGI [17]: 1.27 µM
- TGI [18]: 0.662 µM
- TGI [19]: 2.06 µM
- TGI [20]: 3.53 µM
- TGI [21]: 2.77 µM
- TGI [22]: 1.64 µM
- TGI [23]: 3.94 µM
- TGI [24]: 1.15 µM
- TGI [25]: 21.7 µM
- TGI [26]: 2.66 µM
- TGI [27]: 22.7 µM
- TGI [28]: 5.87 µM
- TGI [29]: 2.29 µM
- TGI [30]: 3.82 µM
- TGI [31]: 4.44 µM
- TGI [32]: 4.21 µM
- TGI [33]: 0.964 µM
- TGI [34]: 2.66 µM
- TGI [35]: 1.56 µM
- TGI [36]: 2.64 µM
- TGI [37]: 0.951 µM
- TGI [38]: 5.41 µM
- TGI [39]: 3 µM
- TGI [40]: 4.16 µM
- TGI [41]: 5.31 µM
- TGI [42]: 1.67 µM
- TGI [43]: 2.01 µM
- TGI [44]: 3.02 µM
- TGI [45]: 0.52 µM
- TGI [46]: 4.65 µM
- TGI [47]: 2.36 µM
- TGI [48]: 3.84 µM
- TGI [49]: 8.89 µM
- TGI [50]: 1.83 µM
- TGI [51]: 3.67 µM
- TGI [52]: 3.19 µM
- TGI [53]: 5.97 µM
- TGI [54]: 2.65 µM
- TGI [55]: 0.908 µM
- TGI [56]: 0.892 µM
- TGI [57]: 3.79 µM

Structure (SMILES): Cc1cc(C(=O)NCCN(C)C)c2nc3ccccc3cc2c1
- TGI [1]: 4.62 µM
- TGI [2]: 1.29 µM
- TGI [3]: 4.42 µM
- TGI [4]: 10.9 µM
- TGI [5]: 10.1 µM
- TGI [6]: 5.05 µM
- TGI [7]: 5.71 µM
- TGI [8]: 2.18 µM
- TGI [9]: 3.54 µM
- TGI [10]: 7.26 µM
- TGI [11]: 10.2 µM
- TGI [12]: 10.8 µM
- TGI [13]: 8.56 µM
- TGI [14]: 3.33 µM
- TGI [15]: 8 µM
- TGI [16]: 11.8 µM
- TGI [17]: 4.28 µM
- TGI [18]: 8.98 µM
- TGI [19]: 3.95 µM
- TGI [20]: 3.91 µM
- TGI [21]: 5.93 µM
- TGI [22]: 5.27 µM
- TGI [23]: 0.971 µM
- TGI [24]: > 21.8 µM
- TGI [25]: 4.31 µM
- TGI [26]: 14.5 µM
- TGI [27]: 5.7 µM
- TGI [28]: 6.38 µM
- TGI [29]: 12.6 µM
- TGI [30]: 3.5 µM
- TGI [31]: 3.93 µM
- TGI [32]: 10.7 µM
- TGI [33]: 2.6 µM
- TGI [34]: 14.1 µM
- TGI [35]: 8.88 µM
- TGI [36]: 3.69 µM
- TGI [37]: 10.6 µM
- TGI [38]: 17.7 µM
- TGI [40]: 7.26 µM
- TGI [41]: 8.97 µM
- TGI [42]: 9.57 µM
- TGI [43]: > 31.3 µM
- TGI [44]: 11.4 µM
- TGI [45]: 1.68 µM
- TGI [46]: 6.89 µM
- TGI [47]: 10.7 µM
- TGI [48]: 4.28 µM
- TGI [49]: 7.16 µM
- TGI [50]: 12.7 µM
- TGI [51]: 3.6 µM
- TGI [52]: 5.02 µM
- TGI [53]: 6.81 µM
- TGI [54]: 2.36 µM
- TGI [55]: 4.12 µM
- TGI [56]: 4.32 µM
- TGI [57]: 6.37 µM
